The target of test [1] is human KHK-A (Homo sapiens (Human), UniProt P50053). Kind of test: KHK Biochemical Assay (IC50), ADP-Glo, KHK-A. The settings on record: ADP-Glo; average of at least two separate assays. In outline: (§1)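 His-tagged enzyme expressed in BL21 (DE3), Ni-NTA purified. Compounds, serially diluted 1:3 in DMSO, pre-incubated 30 min with enzyme in 50 mM Hepes pH 7.4, 140 mM KCl, 5 mM MgCl2, 0.01% Triton-X, then ATP and fructose added; 4 h at room temperature. ADP formation read by ADP-Glo luminescence.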

Test [2] addresses KHK-C expressed in NRK-52E cells (Homo sapiens (Human), UniProt P50053). Kind of test: KHK-C Cell-based Assay (EC50), NRK CTG, fructose-mediated ATP-depletion.
For test [3], the target named is human KHK-C (Homo sapiens (Human), UniProt P50053). Kind of test: KHK Biochemical Assay (IC50), ADP-Glo, KHK-C. The conditions noted are these: ADP-Glo; average of at least two separate assays. In outline: as §1
For orientation: ADP-Glo first removes unused ATP, then detects ADP through luciferase.

Sequence of KHK-C expressed in NRK-52E cells (P50053 whole entry): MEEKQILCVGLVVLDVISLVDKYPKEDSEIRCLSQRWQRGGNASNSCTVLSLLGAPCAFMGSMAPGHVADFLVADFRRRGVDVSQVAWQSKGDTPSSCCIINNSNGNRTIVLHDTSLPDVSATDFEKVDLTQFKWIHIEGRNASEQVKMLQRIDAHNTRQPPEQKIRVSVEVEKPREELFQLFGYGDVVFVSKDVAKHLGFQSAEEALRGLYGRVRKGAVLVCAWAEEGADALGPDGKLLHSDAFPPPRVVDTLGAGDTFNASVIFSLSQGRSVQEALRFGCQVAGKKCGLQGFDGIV
Sequence of human KHK-C (P50053 whole entry): as above
Sequence of human KHK-A (P50053 other isoform, or with tags, fused parts or gaps): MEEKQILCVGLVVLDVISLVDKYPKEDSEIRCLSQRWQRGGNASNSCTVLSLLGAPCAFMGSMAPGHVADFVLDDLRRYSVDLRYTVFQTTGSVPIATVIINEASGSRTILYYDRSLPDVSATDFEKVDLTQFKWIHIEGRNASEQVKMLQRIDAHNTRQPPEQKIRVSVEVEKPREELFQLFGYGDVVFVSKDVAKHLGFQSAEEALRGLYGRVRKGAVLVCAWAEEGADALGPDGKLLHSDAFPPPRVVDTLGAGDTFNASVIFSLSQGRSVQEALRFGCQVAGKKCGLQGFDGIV

For `C[C@H]1CCN1c1nc2c(c(-c3ccc(C4(NC(=O)OC(C)(C)C)CCC4)cc3)n1)CCC2` [Example 311, (S)-tert-butyl (1-(4-(2-(2-methylazetidin-1-yl)-6,7-dihydro-5H-cyclopenta[d]pyrimidin-4-yl)phenyl)cyclobutyl)carbamate], the IC50 in test [1] and in test [3] was above 5000 nM each time. Further, in test [2], the EC50 was 915 nM.

With `C[C@H]1CCN1c1nc2c(c(-c3ccc(C#N)c(F)c3)n1)CCC2` [Example 313, (S)-2-fluoro-4-(2-(2-methylazetidin-1-yl)-6,7-dihydro-5H-cyclopenta[d]pyrimidin-4-yl)benzonitrile], the IC50 in test [1] amounted to 1030 nM; in test [3] it was 1150 nM. Also, a half-maximal response in test [2] (EC50) required 2080 nM.

As for `C[C@H]1CCN1c1nc2c(c(-c3ccc(C#N)c(Cl)c3)n1)CCC2` [Example 314, (S)-2-chloro-4-(2-(2-methylazetidin-1-yl)-6,7-dihydro-5H-cyclopenta[d]pyrimidin-4-yl)benzonitrile], the IC50 in test [1] is 2020 nM; in test [3] it was 1940 nM. Also, the EC50 in test [2] was determined as 4490 nM.

As to `C[C@H]1CCN1c1nc2c(c(-c3cc(F)c(C(N)=O)c(F)c3)n1)CCC2` [Example 315, (S)-2,6-difluoro-4-(2-(2-methylazetidin-1-yl)-6,7-dihydro-5H-cyclopenta[d]pyrimidin-4-yl)benzamide], the IC50 in test [1] came to 31.5 nM; in test [3], 34 nM. In test [2], this molecule displayed an EC50 of 57.3 nM.

As to `C[C@H]1CCN1c1nc2c(c(-c3ccc(C(N)=O)c(C(F)(F)F)c3)n1)CCC2` [Example 316, (S)-4-(2-(2-methylazetidin-1-yl)-6,7-dihydro-5H-cyclopenta[d]pyrimidin-4-yl)-2-(trifluoromethyl)benzamide], the IC50 in test [1] turned out to be 19 nM; in test [3] it was 42.9 nM. This molecule gave an EC50 in test [2] of 35 nM.

`CCOc1cc(-c2nc(N3CC[C@@H]3C)nc3c2CCC3)ccc1C(N)=O` [Example 319, (S)-2-ethoxy-4-(2-(2-methylazetidin-1-yl)-6,7-dihydro-5H-cyclopenta[d]pyrimidin-4-yl)benzamide]: the IC50 in test [1] was 25 nM; in test [3] it was 20.9 nM. Further, the EC50 in test [2] turned out to be 37.3 nM.

As for `C[C@H]1CCN1c1nc2c(c(-c3ccc(C(N)=O)c(NS(C)(=O)=O)c3)n1)CCC2` [Example 320, (S)-4-(2-(2-methylazetidin-1-yl)-6,7-dihydro-5H-cyclopenta[d]pyrimidin-4-yl)-2-(methylsulfonamido)benzamide], the IC50 stood at 210 nM in test [1] and 244 nM in test [3]. The molecule further had an EC50 in test [2] of 638 nM.

In the case of `C[C@H]1CCN1c1nc(-c2cccc(S(N)(=O)=O)c2)c2c(n1)C(F)(F)CC2` [Example 321, (S)-3-(7,7-difluoro-2-(2-methylazetidin-1-yl)-6,7-dihydro-5H-cyclopenta[d]pyrimidin-4-yl)benzenesulfonamide], the IC50 stood at 4.8 nM in test [1] and 4.4 nM in test [3]. The molecule further gave an EC50 in test [2] of 7.3 nM.

On to `C[C@H]1CCN1c1nc(-c2cccc(CNS(C)(=O)=O)c2)c2c(n1)C(F)(F)CC2` [Example 323, (S)—N-(3-(7,7-difluoro-2-(2-methylazetidin-1-yl)-6,7-dihydro-5H-cyclopenta[d]pyrimidin-4-yl)benzyl)methanesulfonamide], for which the IC50 in test [1] stood at 4.7 nM; in test [3] it was 4.2 nM. In test [2], this molecule registered an EC50 of 16.1 nM.

For the molecule `CNCc1cccc(-c2nc(N3CC[C@@H]3C)nc3c2CCC3)c1` [Example 330, N-methyl-1-[3-[2-[(2S)-2-methylazetidin-1-yl]-6,7-dihydro-5H-cyclopenta[d]pyrimidin-4-yl]phenyl]methanamine], the IC50 in test [1] worked out at 22.4 nM; in test [3] it was 19.2 nM. For the same molecule, the EC50 in test [2] stood at 13.1 nM.

On to `C[C@H]1CCN1c1nc(-c2ccccc2)c2c(n1)[C@@H]1C[C@@H]1C2` [Example 333, (5aR,6aR)-2-((S)-2-methylazetidin-1-yl)-4-phenyl-5,5a,6,6a-tetrahydrocyclopropa[4,5]cyclopenta[1,2-d]pyrimidine], for which the IC50 in test [1] and in test [3] was 1310 nM throughout. The same molecule had an EC50 in test [2] of 1130 nM.

With `C[C@H]1CCN1c1nc2c(c(-c3cccc(CN4CCCCC4)c3)n1)CCC2` [Example 345, 2-[(2S)-2-methylazetidin-1-yl]-4-[3-(1-piperidylmethyl)phenyl]-6,7-dihydro-5H-cyclopenta[d]pyrimidine], the IC50 in test [1] was 12.6 nM; in test [3] it was 45.1 nM. This molecule registered an EC50 in test [2] of 53.7 nM.

In the case of `C[C@H]1CCN1c1nc2c(c(-c3cccc(CN(C)C)c3)n1)CCC2` [Example 346, N,N-dimethyl-1-[3-[2-[(2S)-2-methylazetidin-1-yl]-6,7-dihydro-5H-cyclopenta[d]pyrimidin-4-yl]phenyl]methanamine], the IC50 in test [1] came to 16.7 nM; in test [3], 14.7 nM. Moreover, a half-maximal response in test [2] (EC50) required 27.5 nM.

As to `C[C@H]1CCN1c1nc2c(c(-c3cccc(CN4CCCC4)c3)n1)CCC2` [Example 348, 2-[(2S)-2-methylazetidin-1-yl]-4-[3-(pyrrolidin-1-ylmethyl)phenyl]-6,7-dihydro-5H-cyclopenta[d]pyrimidine], the results for the IC50 in test [1] and in test [3] were 24.2 nM and 22.7 nM, respectively. In test [2], a half-maximal response (EC50) required 35.1 nM.

Regarding `C[C@H]1CCN1c1nc2c(c(-c3cccc(CN4CCOCC4)c3)n1)CCC2` [Example 349, 4-[[3-[2-[(2S)-2-methylazetidin-1-yl]-6,7-dihydro-5H-cyclopenta[d]pyrimidin-4-yl]phenyl]methyl]morpholine], the IC50 is 79.3 nM in test [1] and 90.6 nM in test [3]. The EC50 in test [2] amounted to 305 nM.

Regarding `C[C@H]1CCN1c1nc2c(c(-c3cccc(CN4CC(O)C4)c3)n1)CCC2` [Example 350, 1-[[3-[2-[(2S)-2-methylazetidin-1-yl]-6,7-dihydro-5H-cyclopenta[d]pyrimidin-4-yl]phenyl]methyl]azetidin-3-ol], the IC50 in test [1] was 16.8 nM; in test [3], 19.3 nM. For the same molecule, the EC50 in test [2] was determined as 14 nM.

Consider `CC(=O)Nc1ccc(-c2nc(N3CC[C@@H]3C)nc3c2CCC3)cc1` [Example 355, N-[4-[2-[(2S)-2-methylazetidin-1-yl]-6,7-dihydro-5H-cyclopenta[d]pyrimidin-4-yl]phenyl]acetamide], for which the IC50 in test [1] came out at 33.3 nM; in test [3], 72.7 nM. This molecule yielded an EC50 in test [2] of 92.4 nM.

With `C[C@H]1CCN1c1nc2c(c(-c3ccc(CN4CC(O)C4)cc3)n1)CCC2` [Example 365, 1-[[4-[2-[(2S)-2-methylazetidin-1-yl]-6,7-dihydro-5H-cyclopenta[d]pyrimidin-4-yl]phenyl]methyl]azetidin-3-ol], the IC50 was 27.2 nM in test [1] and 19 nM in test [3]. This molecule displayed an EC50 in test [2] of 29.3 nM.

Consider `C[C@H]1CCN1c1nc2c(c(-c3ccc(CN4CCC4)cc3)n1)CCC2` [Example 366, 4-[4-(azetidin-1-ylmethyl)phenyl]-2-[(2S)-2-methylazetidin-1-yl]-6,7-dihydro-5H-cyclopenta[d]pyrimidine], for which the IC50 amounted to 54 nM in test [1] and 86.5 nM in test [3]. The molecule also had an EC50 in test [2] of 75.4 nM.

For `C[C@H]1CCN1c1nc2c(c(-c3ccc(CO)c(F)c3)n1)CCC2` [Example 370, [2-fluoro-4-[2-[(2S)-2-methylazetidin-1-yl]-6,7-dihydro-5H-cyclopenta[d]pyrimidin-4-yl]phenyl]methanol], the IC50 in test [1] is 76.3 nM; in test [3], 81.7 nM. The same molecule showed an EC50 in test [2] of 117 nM.

Regarding `C[C@H]1CCN1c1nc2c(c(-c3ccc(CO)cc3)n1)CCC2` [Example 374, [4-[2-[(2S)-2-methylazetidin-1-yl]-6,7-dihydro-5H-cyclopenta[d]pyrimidin-4-yl]phenyl]methanol], the IC50 in test [1] is 47.8 nM; in test [3], 40.4 nM. For the same molecule, the EC50 in test [2] worked out at 73.5 nM.

As to `C[C@H]1CCN1c1nc2c(c(-c3ccc(CO)s3)n1)CCC2` [Example 375, [5-[2-[(2S)-2-methylazetidin-1-yl]-6,7-dihydro-5H-cyclopenta[d]pyrimidin-4-yl]-2-thienyl]methanol], the IC50 in test [1] came out at 30.3 nM; in test [3], 18.2 nM. Also, in test [2], the EC50 was 84 nM.

For the molecule `C[C@H]1CCN1c1nc2c(c(-c3ccc(C(C)(C)O)s3)n1)CCC2` [Example 376, 2-[5-[2-[(2S)-2-methylazetidin-1-yl]-6,7-dihydro-5H-cyclopenta[d]pyrimidin-4-yl]-2-thienyl]propan-2-ol], the IC50 in test [1] was determined as 52.3 nM; in test [3] it was 27.9 nM. Also, the EC50 in test [2] was 37.3 nM.

As for `C[C@H]1[C@H](O)CN1c1nc2c(c(-c3ccc(CNS(C)(=O)=O)s3)n1)CCC2` [Example 377, N-[[5-[2-[(2S,3R)-3-hydroxy-2-methyl-azetidin-1-yl]-6,7-dihydro-5H-cyclopenta[d]pyrimidin-4-yl]-2-thienyl]methyl]methanesulfonamide], the IC50 in test [1] amounted to 26.9 nM; in test [3] it was 21.1 nM. The molecule also showed an EC50 in test [2] of 92.9 nM.

Take `C[C@H]1CCN1c1nc2c(c(-c3cc4c(=O)[nH]ccc4s3)n1)CCC2` [Example 384, 2-[2-[(2S)-2-methylazetidin-1-yl]-6,7-dihydro-5H-cyclopenta[d]pyrimidin-4-yl]-5H-thieno[3,2-c]pyridin-4-one]: the IC50 in test [1] stood at 2.9 nM; in test [3] it was 14.7 nM. It took 19.7 nM to reach a half-maximal effect in test [2] (EC50).

With `Cc1nc2cc(-c3nc(N4CC[C@@H]4C)nc4c3CCC4)ccc2c(=O)[nH]1` [Example 387, 2-methyl-7-[2-[(2S)-2-methylazetidin-1-yl]-6,7-dihydro-5H-cyclopenta[d]pyrimidin-4-yl]-3H-quinazolin-4-one], the IC50 in test [1] amounted to 5.6 nM; in test [3] it was 9.9 nM. Moreover, in test [2], the midpoint of the response, the EC50, lay at 19.6 nM.

What is called IC50 is the midpoint of a concentration-inhibition curve. Lower therefore signals greater potency. One may read the EC50 as the concentration that produces a half-maximal response. Read a high EC50 as lower potency in that assay.

For the origin of these results see US12410160B2 (Gilead Sciences, Inc., priority 2021, dated 2025).
